Assay results published in article PMC11428031, “Discovery of selective LATS inhibitors via scaffold hopping: enhancing drug-likeness and kinase selectivity for potential applications in regenerative medicine” (RSC Medicinal Chemistry, 2024).
Converted amounts (≈) assume the structure as drawn.

Legend:
in vitro [1] = settings: mouse, liver microsomes
in vitro [2] = settings: human, liver microsomes
physchem = settings: D2O (deuterium oxide)
[3] = Liver microsomal phase I stability, human; settings: for HLM phase I stability (% remaining after 30 min): human liver microsomes 0.5 mg/mL, 1 μM compound, NADPH, 37 °C, mean ± SD, n=3; for Stability in human liver microsomes relative to 1, Truli: experimental values of Table 4
321 protein kinases = test system: 321 protein kinases; design: method as in PMID 35231442; settings: out of 321 tested protein kinases; cited from earlier work
[4] = In vivo pharmacokinetics in male mice; settings: for Ft: IP; for half-life: T1/2, male mice; for clearance: CL
Description: All animal procedures were performed in accordance with the Guidelines for Care and Use of Laboratory Animals of Korea Research Institute of Chemical Technology and approved by the Animal Ethics Committee of Korea Research Institute of Chemical Technology.

[5] = Liver microsomal phase I stability, mouse; settings: mouse liver microsomes 0.5 mg/mL, 1 μM compound, NADPH, 37 °C, mean ± SD, n=3
468 kinases = experiment: KINOMEscan scanMAX kinase profiling, selectivity over the panel; type: binding; settings: 100 nM, of 403 non-mutant kinases
DMPK = target: T1, DMPK (Homo sapiens, UniProt Q09013); experiment: KINOMEscan scanMAX binding, DMPK; settings: 100 nM compound; lower = stronger interaction
T1 sequence (Q09013 1-629): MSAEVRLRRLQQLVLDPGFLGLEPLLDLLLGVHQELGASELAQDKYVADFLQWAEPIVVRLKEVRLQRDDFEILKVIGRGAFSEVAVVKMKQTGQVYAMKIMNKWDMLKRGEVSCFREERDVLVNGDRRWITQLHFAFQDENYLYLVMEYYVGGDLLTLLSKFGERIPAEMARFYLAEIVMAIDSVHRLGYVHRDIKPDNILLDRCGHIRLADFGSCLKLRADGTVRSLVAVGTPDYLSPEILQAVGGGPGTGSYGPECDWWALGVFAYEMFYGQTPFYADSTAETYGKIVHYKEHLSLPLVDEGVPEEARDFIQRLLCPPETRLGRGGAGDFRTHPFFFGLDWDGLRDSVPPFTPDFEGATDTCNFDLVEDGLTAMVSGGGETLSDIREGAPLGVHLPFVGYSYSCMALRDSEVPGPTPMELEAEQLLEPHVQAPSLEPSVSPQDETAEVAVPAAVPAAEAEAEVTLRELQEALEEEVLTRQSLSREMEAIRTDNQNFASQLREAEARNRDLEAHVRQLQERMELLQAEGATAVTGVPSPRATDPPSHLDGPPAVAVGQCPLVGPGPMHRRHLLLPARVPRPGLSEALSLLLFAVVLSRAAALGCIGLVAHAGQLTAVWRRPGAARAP

YSK4 = target: T2, YSK4 (Homo sapiens, UniProt Q56UN5); experiment: KINOMEscan scanMAX binding, YSK4; settings: 100 nM compound; lower = stronger interaction
T2 sequence (Q56UN5 1-1328): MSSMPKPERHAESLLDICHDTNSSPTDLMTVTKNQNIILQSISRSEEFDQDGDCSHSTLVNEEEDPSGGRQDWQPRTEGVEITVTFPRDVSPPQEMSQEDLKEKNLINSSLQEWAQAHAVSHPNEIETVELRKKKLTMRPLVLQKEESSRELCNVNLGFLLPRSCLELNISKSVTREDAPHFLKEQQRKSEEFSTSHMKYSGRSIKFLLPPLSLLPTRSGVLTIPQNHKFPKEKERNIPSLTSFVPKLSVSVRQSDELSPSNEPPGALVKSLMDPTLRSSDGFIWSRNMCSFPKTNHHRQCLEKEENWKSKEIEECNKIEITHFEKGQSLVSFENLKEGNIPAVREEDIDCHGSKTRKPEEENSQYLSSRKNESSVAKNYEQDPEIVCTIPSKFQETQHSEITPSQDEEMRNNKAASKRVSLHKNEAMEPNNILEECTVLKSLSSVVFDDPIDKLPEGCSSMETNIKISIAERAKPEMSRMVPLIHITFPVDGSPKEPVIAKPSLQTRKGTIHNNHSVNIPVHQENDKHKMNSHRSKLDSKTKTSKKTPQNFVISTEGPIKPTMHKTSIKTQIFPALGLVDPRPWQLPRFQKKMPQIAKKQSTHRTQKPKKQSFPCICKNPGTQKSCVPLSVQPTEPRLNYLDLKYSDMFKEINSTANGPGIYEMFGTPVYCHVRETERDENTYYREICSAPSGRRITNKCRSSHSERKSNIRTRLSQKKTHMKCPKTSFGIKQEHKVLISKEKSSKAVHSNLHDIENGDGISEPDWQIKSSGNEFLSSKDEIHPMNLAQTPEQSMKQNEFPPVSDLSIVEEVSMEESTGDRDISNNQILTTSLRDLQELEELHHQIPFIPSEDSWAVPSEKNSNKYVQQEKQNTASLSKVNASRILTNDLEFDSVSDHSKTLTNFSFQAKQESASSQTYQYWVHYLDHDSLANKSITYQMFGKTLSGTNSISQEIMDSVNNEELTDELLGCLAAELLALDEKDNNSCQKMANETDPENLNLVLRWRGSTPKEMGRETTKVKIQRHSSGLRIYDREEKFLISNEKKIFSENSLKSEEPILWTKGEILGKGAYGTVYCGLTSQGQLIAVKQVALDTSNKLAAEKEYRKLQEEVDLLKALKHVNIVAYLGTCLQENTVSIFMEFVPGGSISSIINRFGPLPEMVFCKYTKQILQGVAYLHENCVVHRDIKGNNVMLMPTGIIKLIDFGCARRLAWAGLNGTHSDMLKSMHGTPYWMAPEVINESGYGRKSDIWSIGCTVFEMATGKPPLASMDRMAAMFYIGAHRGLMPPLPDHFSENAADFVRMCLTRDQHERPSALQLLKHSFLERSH

[6] = male, mouse, plasma, ip, 10 mg/kg
[7] = male, mouse, plasma, iv, 5 mg/kg
[8] = male, mouse, plasma, iv, 5 mg/kg, male mice
[9] = male, mouse, plasma, po, 20 mg/kg

| Structure (SMILES) | remaining at 0.5 h, 1 μM (in vitro [1]) [%] | remaining at 0.5 h, 1 μM (in vitro [2]) [%] | solubility at 24 h (physchem) [µg/mL] | HLM phase I stability (% remaining after 30 min) [3] [%] | Ft ([4]; male mice, 10 mg/kg) [%] | AUC(0-inf) [4, 6] [ng·h/mL] | AUC(0-t) [4, 6] [ng·h/mL] | Cmax [4, 6] [ng/mL] | MRT inf [4, 6] [h] | MRT last [4, 6] [h] | Tmax [4, 6] [h] | half-life [4, 6] [h] | AUC(0-inf) [4, 7] [ng·h/mL] | AUC(0-t) [4, 7] [ng·h/mL] | MRT inf [4, 7] [h] | MRT last [4, 7] [h] | Vd [4, 7] [L/kg] | clearance [4, 8] [mL/min/kg] | half-life [4, 7] [h] | AUC(0-inf) [4, 9] [ng·h/mL] | also measured |
| --- | --- | --- | --- | --- | --- | --- | --- | --- | --- | --- | --- | --- | --- | --- | --- | --- | --- | --- | --- | --- | --- |
| O=C(/N=c1\sccn1Cc1ccccc1)c1c[nH]c2ncccc12 [1 (Truli), (Z)-N-(3-benzylthiazol-2(3H)-ylidene)-1H-pyrrolo[2,3-b]pyridine-3-carboxamide, reference compound] | 0.18 ± 0.03 | 2.68 ± 0.46 | 140 ± 26 (≈ 419 µM) | 2.7 ± 0.5 |  |  |  |  |  |  |  |  |  |  |  |  |  |  |  |  |  |
| CC/C(=N\NC(=O)NCc1cccc(O)c1)c1ccc(O)c(C)c1O [3 (GA-017)] |  |  |  |  |  |  |  |  |  |  |  |  |  |  |  |  |  |  |  |  | Number of protein kinases against which high potency was exhibited (321 protein kinases): 16 |
| O=C(/N=c1\sccn1Cc1ccccc1)c1c[nH]c2ncncc12 [Compound 5k, (Z)-N-(3-Benzylthiazol-2(3H)-ylidene)-7H-pyrrolo[2,3-d]pyrimidine-5-carboxamide] | 13.8 ± 0.55 | 43.1 ± 1.1 | 680 ± 89 (≈ 2030 µM) | 43 ± 1.1 | 131.71 | 11500 ± 3250 | 11400 ± 3280 | 9510 ± 2030 | 1.27 ± 0.15 | 1.14 ± 0.15 | 0.5 | 5.24 ± 2.45 | 4340 ± 2160 | 4340 ± 2170 | 1.49 ± 1.72 | 1.43 ± 1.65 | 3 ± 4.42 | 23.5 | 2.86 ± 1.88 | 25800 ± 7970 | AUC(0-t) [4, 9]: 25700 ± 8010 ng·h/mL; Cmax [4, 9]: 13300 ± 2820 ng/mL; MRT inf [4, 9]: 1.81 ± 0.94 h; MRT last [4, 9]: 1.74 ± 0.99 h; Tmax [4, 9]: 0.42 ± 0.14 h; bioavailability [4, 9]: 148%; half-life [4, 9]: 4.25 ± 3.57 h; MLM phase I stability (% remaining after 30 min) [5]: 14 ± 0.6%; Stability in human liver microsomes relative to 1, Truli [3]: more than ten times higher stability |
| O=C(/N=c1\sccn1Cc1ccccc1)c1n[nH]c2ncccc12 [Compound 5l, (Z)-N-(3-Benzylthiazol-2(3H)-ylidene)-1H-pyrazolo[3,4-b]pyridine-3-carboxamide] | 0.69 ± 0.17 | 34.9 ± 1.31 | 290 ± 15 (≈ 865 µM) | 35 ± 1.3 | 74.36 | 4390 ± 710 | 4370 ± 720 | 7300 ± 1880 | 1.14 ± 0.21 | 0.97 ± 0.12 | 0.08 | 5.59 ± 0.88 | 2960 ± 150 | 2940 ± 180 | 1.04 ± 0.71 | 0.71 ± 0.25 | 1.8 ± 1.32 | 28.2 | 6.56 ± 3.32 | 5160 ± 590 | Number hits, S(1) (468 kinases; %Ctrl <1): 0; Number hits, S(10) (468 kinases; %Ctrl <10): 2; Number hits, S(35) (468 kinases; %Ctrl <35): 3; %Ctrl @ 100 nM, DMPK (DMPK): 6.5 %Ctrl; %Ctrl @ 100 nM, YSK4 (YSK4): 7.1 %Ctrl; Ft (bioavailability, F) ([4]; male mice, PO, 20 mg/kg): 43.89%; AUC(0-t) [4, 9]: 5150 ± 590 ng·h/mL; Cmax [4, 9]: 5740 ± 920 ng/mL; MRT inf [4, 9]: 1.56 ± 0.1 h; MRT last [4, 9]: 1.5 ± 0.1 h; Tmax [4, 9]: 0.25 h; half-life [4, 9]: 3.46 ± 0.33 h; Stability in human liver microsomes relative to 1, Truli [3]: more than ten times higher stability |
